Consider seven compounds from publication PMC11345829, “Discovery of Potent Isoquinolinequinone N-Oxides to Overcome Cancer Multidrug Resistance” (Journal of Medicinal Chemistry, 2024).

The test system of test [1] is NCI60 tumor cell line panel. Description: NCI60 five-dose screen, mean over panel. It counts as cell-based, human. An excerpt:
(§1) The concentration−response curve generated enables the determination of three criteria, GI50 (drug concentration at which 50% of cell growth is inhibited), total growth inhibition (TGI) and LC50 (drug concentration at which 50% of tumor cells are killed) which can be used to compare effectiveness against any compound tested in the screen since its inception.
(§2) S2.1 NCI Screening Assay Experimental details
(§3) NCI Screening Assay Experimental: Cancer cell growth assays (NCI60 screening) 5,6 One-dose study: Tested compounds were initially solubilised in DMSO, diluted into RPMI 1640 and 5% fetal bovine serum/L-glutamine, and added to 96-well plates containing cell lines previously cultured for 24 h. After 48 h incubation, the media were removed, and the cells were fixed and stained with sulforhodamine B to determine overall percent growth/ total protein content. Unbound dye was removed with five washes of 1% acetic acid, and the plates were allowed to air dry. The dye was then resolubilised in Tris buffer, and the colorimetric absorbance was measured (515 nm). Growth inhibition was measured relative to the response generated from proliferating cells cultured under identical conditions for 48 h. Data from one-dose experiments pertains to the percentage growth at […]
(§4) Five-dose study: Serial 5 × 10-fold dilution from an initial DMSO stock solution was performed, prior to incubation at each individual concentration (10 nM, 100 nM, 1 μM, 10 μM and 100 μM). Using seven absorbance measurements (time zero (Tz), control growth (C), and test growth in the presence of drug at the five concentration levels (Ti)), the percentage growth was calculated at each of the drug concentrations levels. Percentage growth inhibition was calculated as: [(Ti − Tz)/(C − Tz)] × 100 for concentrations for which Ti ≥ Tz, [(Ti − Tz)/Tz] × 100 for concentrations for which Ti < Tz. Three dose response parameters were calculated for each experimental agent. […]
(§5) was calculated from [(Ti − Tz)/(C − Tz)] × 100 = 50, which is the drug concentration resulting in a 50% reduction in the net protein increase (as measured by sulforhodamine B staining) in control cells during the drug incubation. The drug concentration resulting in total growth inhibition (TGI) was calculated from Ti = Tz. The LC50 (concentration of drug resulting in a 50% reduction in the measured protein at the end of the drug treatment as compared to that at the beginning) indicating a net loss of cells following treatment was calculated from [(Ti − Tz)/Tz] × 100 = −50. Values were calculated for each of these three parameters if the level of activity was reached; however, if the effect was not reached or was exceeded, the value for that parameter was expressed as greater or less than the maximum or minimum concentration tested.

The next test concerns OVCAR-8. The test can be described thus: NCI60 five-dose GI50. In kind it is cell-based. The conditions noted are these: Homo sapiens, ovarian.
Source text: as §1, §2
as §3, with “nm).” for “nm). Growth inhibition was measured relative to the response generated from proliferating cells cultured under identical conditions for 48 h. Data from one-dose experiments pertains to the percentage growth at”
as §4, §5

Another test relates to DLD1-TxR. The test can be described thus: SRB cell growth inhibition assay. It counts as cell-based, human. The conditions noted are these: for selectivity ratio colorectal cancer: GI50 sensitive DLD1 / GI50 MDR DLD1-TxR; for GI50: Homo sapiens, 48 h, colorectal cancer MDR, mean ± SEM; for GI50 / GI50 concentration range against MDR DLD1-TxR: SRB assay; for GI50 concentration range against MDR DLD1-TxR: in words. The protocol:
Two distinct pairs of counterpart drug-sensitive and MDR human tumor cell lines were used, namely the non-small lung cancer (NSCLC) NCI-H460 (same cell line as in the NCI screen) and its MDR counterpart cell line NCI-H460/R and the colorectal cancer DLD1 and its MDR counterpart cell line DLD1-TxR (Table 3). The screening was performed using the SRB assay, and the GI50 for each compound was determined by interpolation on the attained concentration−response curves and compared with NCI60 screening data (SI, Figures S62−S63; Table S21).
Two pairs of drug-sensitive and multidrug-resistant (MDR) cell lines from human nonsmall cell lung cancer (NSCLC), NCI-H460 and NCI-H460/R, and colorectal cancer, DLD1 and DLD1-TxR, kindly provided by Dr M. Pešić (Belgrade, Serbia), were used to evaluate the growth inhibition potential of the compounds 1, 2, 3, 4, 5, 20, 23, 24, an 25.[76],[77] Additionally, growth inhibition assays were performed with compound 25 on two other NSCLC cell lines, A549 and NCI-H322, obtained from the American Type Culture Collection (ATCC) and the European Collection of Authenticated Cell Cultures, respectively. The A549 cell line was maintained in Dulbecco’s Modified Eagle Medium (DMEM) supplemented with 4.5 g/L Glucose with UltraGlutamine with sodium pyruvate (Lonza, Basel Stücki, Switzerland), enriched with 10% fetal bovine serum (FBS; Biowest, Nuaillé, France). The lung fibroblast MRC-5 cell line and the remaining NSCLC and colorectal cancer cell lines were cultured in Roswell Park Memorial Institute (RPMI) 1640 (with stable glutamine and 25 mM HEPES) medium (Biowest), supplemented with 10% fetal bovine serum. […] For the sulforhodamine B (SRB) and 3D cell culture assays, the media were supplemented with 5% FBS. The remaining experiments were performed with medium supplemented with 10% FBS.
Cells were seeded at a previously determined optimal cell concentration (5.0 × 10^4 cells/mL for NSCLC cells and the nontumorigenic MRC-5 cell line and 1.0 × 10^5 cells/mL for colorectal cancer cells) and incubated at 37 °C for 24 h. […] The SRB assay was performed as previously described.[78],[79] Briefly, after fixing cells with 10% (w/v) ice-cold trichloroacetic acid (Merck Life Science), the proteins were stained with 0.4% of SRB (Merck Life Science) in acetic acid (Merck Life Science). Following washing steps in acetic acid, the bound dye was solubilized with 10 mM Tris base solution (Merck Life Science). Absorbance was measured at 510 nm in a multiplate reader (Synergy Mx, Biotek Instruments Inc., Winooski, Vermont, USA) using the Gen5 software (Biotek Instruments Inc.).

[2] abbreviates: Homo sapiens, five dose, across 57-60 cell lines (number given per compound), read-out: Mean of GI50 as Log 10 Concentration (SD) (converted).
Where [3] appears, read: five dose, mean over 52 human tumor cell lines common to all analogues, read-out: mean GI50.

Like-named read-outs stand apart in the source and are kept apart here.

Turning to `COC(=O)c1c2c(c(C)[n+]([O-])c1C)C(=O)C(NCc1ccc(O)cc1)=CC2=O` [Compound 20], the GI50 in test [1] (setting [2]) was 1310 nM; in test [1] (setting [3]), 1580 nM; in the test on OVCAR-8, 1080 nM; with DLD1-TxR it was 5930 ± 550 nM. Besides, the “selectivity ratio colorectal cancer” value in the test with DLD1-TxR turned out to be 1.6.

Regarding `COC(=O)c1c2c(c(C)[n+]([O-])c1C)C(=O)C(NCc1ccc(F)cc1)=CC2=O` [Compound 4], the GI50 in test [1] (setting [2]) is 1410 nM; in test [1] (setting [3]), 1540 nM; in the test on OVCAR-8, 1590 nM; in the test with DLD1-TxR it was 3130 ± 100 nM. In addition, the “selectivity ratio colorectal cancer” value in the test with DLD1-TxR is reported as 1.9.

`COC(=O)c1c2c(c(C)[n+]([O-])c1C)C(=O)C=C(NCc1ccccc1)C2=O` [Compound 2]: in test [1] (2 versus 1), the “fold more potent average GI50 than 1” value came to 2.8 fold. In the test on DLD1-TxR, the “selectivity ratio colorectal cancer” value was 2.7, the GI50 was 880 ± 90 nM and the “GI50 concentration range against MDR DLD1-TxR” value (“GI50 concentration range” for short) is “nanomolar range”.

As to `COC(=O)c1c2c(c(C)[n+]([O-])c1C)C(=O)C=C(NCc1ccc(F)cc1)C2=O` [Compound 5], the GI50 was 583 nM in test [1] (setting [2]), 760 nM in test [1] (setting [3]), 406 nM in the test with OVCAR-8 and 670 ± 50 nM with DLD1-TxR. Also, the “selectivity ratio colorectal cancer” value in the test with DLD1-TxR is on record as 1.8. The “GI50 concentration range” value in the test with DLD1-TxR is “nanomolar range”.

On to `COC(=O)c1c2c(c[n+]([O-])c1C)C(=O)C=CC2=O` [Compound 23], for which the GI50 in test [1] (setting [2]) is 2490 nM; in test [1] (setting [3]), 2150 nM; with OVCAR-8 it was 2930 nM; in the test on DLD1-TxR, 14900 ± 680 nM. In the test on DLD1-TxR, the “selectivity ratio colorectal cancer” value was determined as 2.

Consider `COC(=O)c1c2c(c[n+]([O-])c1C)C(=O)C=C(NCc1ccccc1)C2=O` [Compound 25], for which the GI50 in test [1] (setting [2]) was 190 nM. Further, in test [1] (comparison with ref 45), the “share of FDA approved anticancer agents outperformed in mean LC50” value is 86% and the “share of FDA approved anticancer agents with higher mean GI50” value stood at 83%. In addition, in test [1] (setting [3]), the GI50 stood at 210 nM. In test [1] (five dose, number of cell lines out of 60), the “cell lines with ≤200 nM GI50” value is recorded as 31/60. Moreover, the GI50 in the test on OVCAR-8 was 240 nM. In addition, in the test with DLD1-TxR, the “selectivity ratio colorectal cancer” value came to 1.5, the GI50 came out at 420 ± 30 nM and the “GI50 concentration range” value is listed as “nanomolar range”.

`COC(=O)c1c2c(c[n+]([O-])c1C)C(=O)C(NCc1ccccc1)=CC2=O` [Compound 24]: the GI50 was 579 nM in test [1] (setting [2]), 690 nM in test [1] (setting [3]), 320 nM in the test on OVCAR-8 and 720 ± 30 nM with DLD1-TxR. In addition, the “selectivity ratio colorectal cancer” value with DLD1-TxR is 1.9. For the same compound, the “GI50 concentration range” value in the test with DLD1-TxR is reported as “nanomolar range”.
